Assays:
Daphna magna = assay: 48-hour acute toxicity to Daphna magna; assay type: in vivo; conditions: isolated, purified component from Example 3
Desmondesmus subspicatus = assay: Fresh water algal growth inhibition test (OECD 201); assay type: cell-based; conditions: isolated, purified component from Example 3; read-out: Fresh Water algal growth inhibition test with Desmondesmus subspicatus ErC50/0-3
From the text: Aquatic Toxicity procedures and test methods are based on the recommendations of the following guidelines: Organization for Economic Cooperation and Development (OECD): OECD Guidelines for the Testing of Chemicals, “Freshwater Alga and Cyanobacteria, Growth Inhibition Test”, Procedure 201, adopted 23 Mar. 2006; European Economic Community (EEC): Commission directive 92/69/EEC of 31 Jul. 1992, Methods for the determination of ecotoxicity, C.3., “Algal Inhibition Test”. Preferably the surfactants of the present invention have a toxicity profile (EC50)>1 and </=10 mg/l; more preferably an EC50>10 and </=100 mg/l; and most preferably an EC50>100 mg/l.
The study procedures and test methods for aquatic toxicity are based on the recommendations of the following guidelines: Organization for Economic Cooperation and Development (OECD): OECD Guidelines for the Testing of Chemicals, “Freshwater Alga and Cyanobacteria, Growth Inhibition Test”, Procedure 201, adopted 23 Mar. 2006; European Economic Community (EEC): Commission directive 92/69/EEC of 31 Jul. 1992, Methods for the determination of ecotoxicity, C.3., “Algal Inhibition Test”.
Data from the aquatic toxicity tests of the isolated and purified C12 monosulfonate (sodium 2-(dodecanyloxy)-3-hydroxypropane-1-sulfonate) and C12 disulfonate (sodium 2-(dodecanyloxy)propane-1,3-disulfonate) from Example 3 is shown in Table 2. […]

`CCCCCCCCCCCCOC(CO)CS(=O)(=O)[O-].[Na+]` (stereo not shown) [C12 monosulfate component, sodium 2-(dodecanyloxy)-3-hydroxypropane-1-sulfonate] was tested, and the EC50 (Daphna magna) was greater than 100 µg/mL and the EC50 (Desmondesmus subspicatus) was greater than 100 µg/mL.
In the case of `CCCCCCCCCCCCOC(CS(=O)(=O)[O-])CS(=O)(=O)[O-].[Na+].[Na+]` [C12 disulfonate component, sodium 2-(dodecanyloxy)propane-1,3-disulfonate], the EC50 (Daphna magna) is reported as greater than 100 µg/mL and the EC50 (Desmondesmus subspicatus) is reported as greater than 100 µg/mL.

Reference: US20160083643A1, “ENHANCED OIL RECOVERY METHOD EMPLOYING A BIODEGRADABLE BRINE TOLERANT FOAM-FORMING COMPOSITION” (DOW GLOBAL TECHNOLOGIES LLC, priority 2013, published 2016)
